According to ChEMBL document CHEMBL3046574, “Synthesis and Insecticidal Activity of 2-Alkoxy-4H-l,3,2-benzoxazaphosphorin-2-thiones” (1992):
Values after ≈ are worked out from the molar mass of the structure shown.

Tests used:
Assay type in all cases: functional
Spodoptera litura [1] = experiment: Insecticidal activity against Spodoptera litura assessed as mortality at 1000 ppm by leaf dipping method; conditions: foliar
Laodelphax striatellus [2] = experiment: Insecticidal activity against Laodelphax striatella (small brown planthopper) assessed as mortality at 500 ppm by root soaking method
Laodelphax striatellus [3] = experiment: Insecticidal activity against Laodelphax striatella (small brown planthopper) assessed as mortality at 50 ppm by root soaking method
Spodoptera litura [4] = experiment: Insecticidal activity against Spodoptera litura LC50 assessed as mortality by leaf dipping method; conditions: foliar

Structure (SMILES)	mortality at 1000 ppm (Spodoptera litura [1]) [%]	mortality at 500 ppm (Laodelphax striatellus [2]) [%]	mortality at 50 ppm (Laodelphax striatellus [3]) [%]	LC50 (Spodoptera litura [4]) [µg/mL]
CCCN1Cc2ccccc2OP1(=S)OCC (stereo not given)	73	40		
CCOP1(=S)Oc2ccc(Br)cc2CN1C(C)C (stereo not given)	63	100	87	
CCN1Cc2ccccc2OP1(=S)OC (stereo not given)	97	83		
CNC(=O)Oc1ccccc1OC(C)C [PROPOXUR]		100	16.1	
CCCOP1(=S)Oc2ccc([N+](=O)[O-])cc2CN1CC (stereo not given)	0	0		
CCOP1(=S)Oc2ccc(Cl)cc2CN1CC (stereo not given)	20	10		
C=CCN1Cc2cc(Br)ccc2OP1(=S)OCCC (stereo not given)	0	0		
COP1(=S)Oc2ccc(Br)cc2CN1CC(C)C (stereo not given)	0	0		
COP1(=S)Oc2ccc(Br)cc2CN1C(C)C (stereo not given)	60	100	85	
CCOP1(=S)Oc2ccc(Br)cc2CN1CC (stereo not given)	27	0		
CCOP1(=S)Oc2ccc([N+](=O)[O-])cc2CN1CC (stereo not given)	0	0		
CCCN1Cc2cc(Cl)ccc2OP1(=S)OCC (stereo not given)	0	0		
CCCOP1(=S)Oc2ccc(Cl)cc2CN1CC(C)C (stereo not given)	0	0		
C=CCN1Cc2ccccc2OP1(=S)OCC (stereo not given)	50	50		
CCOP1(=S)Oc2ccc(Br)cc2CN1CC(C)C (stereo not given)	0	0		
CCCOP1(=S)Oc2ccc(Cl)cc2CN1C(C)C (stereo not given)	0	0		
CCOP1(=S)Oc2cc(Br)c(Br)cc2CN1C(C)C (stereo not given)	0	0		

Structure (SMILES)	mortality at 1000 ppm (Spodoptera litura [1]) [%]	mortality at 500 ppm (Laodelphax striatellus [2]) [%]	mortality at 50 ppm (Laodelphax striatellus [3]) [%]	LC50 (Spodoptera litura [4]) [µg/mL]
C=CCN1Cc2cc(Cl)ccc2OP1(=S)OCC (stereo not given)	0	0		
C=CCN1Cc2cc(Br)ccc2OP1(=S)OCC (stereo not given)	20	0		
CCOP1(=S)Oc2ccc(Cl)cc2CN1CC(C)C (stereo not given)	30	0		
C=CCN1Cc2cc(Br)ccc2OP1(=S)OC (stereo not given)	18	0		
CCOP1(=S)Oc2ccc([N+](=O)[O-])cc2CN1C(C)C (stereo not given)	0	0		
CCN1Cc2cc([N+](=O)[O-])ccc2OP1(=S)OC (stereo not given)	0	0		
CCCOP1(=S)Oc2cc(Cl)c(Cl)cc2CN1CC(C)C (stereo not given)	17	0		
CCOP1(=S)Oc2ccccc2CN1CC (stereo not given)	93	97		
CCOP1(=S)Oc2ccccc2CN1C(C)C (stereo not given)	90	43		
CCOC(=O)CC(SP(=S)(OC)OC)C(=O)OCC (stereo not given) [MALATHION]	100	100	100	8.3 (≈ 25.1 µM)
CCCOP1(=S)Oc2ccc(Br)cc2CN1CC(C)C (stereo not given)	0	0		
COP1(=S)Oc2ccc(Cl)cc2CN1C(C)C (stereo not given)	40	73		
CCOP1(=S)Oc2cc(Cl)c(Cl)cc2CN1CC(C)C (stereo not given)	57	0		
C=CCN1Cc2ccccc2OP1(=S)OC (stereo not given)	93	97		
CCOP1(=S)Oc2ccc(Cl)cc2CN1C(C)C (stereo not given)	33	87		
C=CCN1Cc2cc(Cl)ccc2OP1(=S)OCCC (stereo not given)	13	0		
